Source: PubChem BioAssay (NCI)
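48-hour exposure; five concentrations; linearly interpolated endpoints. Here, GI50 denotes the concentration required for 50% inhibition of growth. The concentration for full growth arrest is given as TGI.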

Experiments:
Assay in all cases: DTP human tumour cell line panel, 48 h
[1] = test system: PC-3 prostate
[2] = test system: ACHN renal
[3] = test system: A549 NSCLC
[4] = test system: SK-MEL-5 melanoma
[5] = test system: A498 renal
[6] = test system: NCI-H522 lung
[7] = test system: UO-31 renal
[8] = test system: MCF7 breast
[9] = test system: OVCAR-3 ovarian
[10] = test system: COLO 205 colon

Compound	GI50 [1] [µM]	TGI [1] [µM]	GI50 [2] [µM]	TGI [2] [µM]	GI50 [3] [µM]	TGI [3] [µM]	GI50 [4] [µM]	TGI [4] [µM]	GI50 [5] [µM]	TGI [5] [µM]	GI50 [6] [µM]	GI50 [7] [µM]	TGI [7] [µM]	GI50 [8] [µM]	TGI [8] [µM]	GI50 [9] [µM]	TGI [9] [µM]	TGI [10] [µM]	TGI [6] [µM]
O=C(/C=C/c1ccco1)Nc1ncc(Cc2cc(Cl)ccc2Cl)s1	0.0421	> 100	0.0664	> 100	0.108	> 100	0.0441	> 64.8	0.0245	3.96	0.0364	0.162	> 100	0.0359	> 100	0.0294	0.122		
NP1(Oc2ccc(F)cc2)=NP(N)(Oc2ccc(F)cc2)=NP(Oc2ccc(F)cc2)(Oc2ccc(F)cc2)=N1 (configuration not stated)		16.4		12.1		14.6		17.8		8.71			14.2		10.9		16	19.4	
O=C(O)CCCCCNCc1cc2cc3c(cc2c2cc(OCc4ccccc4)ccc12)OCO3			3.48	13.2	1.55	3.17	1.65	3.3	3.17	13.2	1.76	4.01	13.9	1.68	3.21	2.11	5.06		3.45
CC(=O)O[C@H]1CSC[C@@H](OC(C)=O)C1[N+](=O)[O-] (some centres not stated)				> 100		> 100		> 100		> 100							55.3	49.1	36.8
Cc1ccccc1NC(=O)C(=O)C(C(=O)c1ccccc1F)C1OC(=O)c2ccccc21 (configuration not stated)				> 100		> 100		86.5		> 100			49.4				95	45.1	19.1
CCCCCCNC(=O)CCN(C(=O)O)S(=O)(=O)c1ccc(NC(=O)c2ccccc2)cc1				> 100		> 66.2		> 100		> 100			> 100				> 100	> 59.8	> 100
C=C1C(=O)C23C(O)CC4C(C)(C)CCC(O)C4(C)C2CC(OC(C)=O)C1[C@H]3O (some centres not stated)		23.7		8.94		13.7				30.9			29.7				19	5.3	0.638
Nc1ncc(CN2CCCC2)c(-c2ccccc2O)n1				> 750		> 750		> 750		> 750			> 750				> 750	> 750	> 750
CN(C(=O)C12C3C4C1C1C2C3C41C#N)C(C)(C)C (configuration not stated)				> 100		> 100		> 100		> 100			> 100				> 100	> 100	> 100
N/N=C1/C(=O)N(c2ccc(Cl)cc2)C(=O)C(=O)C1c1nc2ccccc2s1 (configuration not stated)				> 100		> 100		> 100		> 100			> 100				> 100	> 100	> 100
